14 compounds from article PMC6274563, “Synthesis and In Vitro Anti Leishmania amazonensis Biological Screening of Morita-Baylis-Hillman Adducts Prepared from Eugenol, Thymol and Carvacrol” (Molecules, 2016) can be followed below.

The test system of one series is human red blood cells. As to the kind of experiment: Haemolytic assay. Type of series: cell-based. Conditions: for SIrb (selectivity index on red blood cell) = HC50/IC50: HC50 on red blood cells / IC50 on L. amazonensis promastigotes.
Series [1] deals with promastigotes of Leishmania amazonensis (IFLA/BR/67/PH8). As to the kind of experiment: Antileishmanial activity against promastigotes (MTT viability). In kind it is cell-based. As to the method: The promastigote viabilities were determined by the ability of living cells to reduce the yellow MTT (3-(4,5-dimethylthiazol-2-yl)-2,5-diphenyltetrazolium bromide, a tetrazole) to purple formazan. Promastigote forms of Leishmania amazonensis (IFLA/BR/67/PH8) in the log phase of growth were incubated at 25 °C in 96-well cellular culture plates (TPP, Trasadingen, Switzerland) with 1 × 10^5 cells/well in 100 μL Schneider’s Drosophila medium supplemented with 20% of FBS in the presence or absence of different concentrations of compounds 4–15. The growth of promastigotes forms was evaluated simultaneously in the presence of Glucantime®, as reference drug. After 72 h of incubation, […] of a 5 mg·mL^−1 MTT solution was added. After 4 h of incubation at 25 °C, the formed product formazan was dissolved in […] of sodium dodecyl sulfate (SDS) at 10% for 24 h, and the absorbance was measured by spectrophotometry at a 545 nm wavelength. The percentage viability was calculated from the ratio of OD readings in the wells with compounds versus the wells without compounds × 100. The concentration that inhibited 50% of growth (IC50) was determined by regression analysis using the SPSS 8.0 software for Windows (IBM, New York, NY, USA). All experiments were performed at least three times, and each experiment was performed in triplicate. […]

Where [2] appears, read: haemolysis of human red blood cells.
The mark [3] stands for this setting: Leishmania amazonensis, promastigotes of L. amazonensis, 72 h incubation, MTT, average of three independent experiments ± standard error of the mean, read-out: IC50.

Like-named read-outs stand apart in the source and are kept apart here.

With `C[C@@H]1[C@H](O)[C@@H](C)/C=C/C=C/C=C/C=C/C=C/C=C/C=C/[C@H](O[C@@H]2O[C@H](C)[C@@H](O)[C@H](N)[C@@H]2O)C[C@@H]2O[C@](O)(C[C@@H](O)C[C@@H](O)[C@H](O)CC[C@@H](O)C[C@@H](O)CC(=O)O[C@H]1C)C[C@H](O)[C@H]2C(=O)O` [AmphotericinB, amphotericin B], the “SIrb (selectivity index on red blood cell) = HC50/IC50” value with human red blood cells was determined as 22.34. In the series on human red blood cells (setting [2]), the concentration for 50% haemolysis (HC50) was 11.61 µM. In series [1] (setting [3]), the IC50 came out at 0.52 ± 0.03 µM.
Compound Glucantime^® displayed an HC50 in the series on human red blood cells of 1175.02 µM. In addition, the IC50 in series [1] (promastigotes of L. amazonensis, 72 h incubation, MTT, average of three independent experiments ± standard error of the mean, read-out: IC50) was 1630 ± 437 µM.
Regarding `Cc1ccc(C(C)C)c(O)c1` [Compound 5, thymol], the IC50 in series [1] (setting [3]) is 115 ± 5.77 µM.
Take `C=CCc1ccc(OC(=O)C(=C)C(O)c2cccc([N+](=O)[O-])c2)c(OC)c1` (stereo not shown) [Compound 8, 4-Allyl-2-methoxyphenyl-2-(hydroxy(3-nitrophenyl)methyl)acrylate]: the “SIrb (selectivity index on red blood cell) = HC50/IC50” value in the series with human red blood cells is over 38.13. The concentration for 50% haemolysis (HC50) with human red blood cells (setting [2]) was over 400 µM. In addition, the 50% inhibitory concentration (IC50) in series [1] (setting [3]) came out at 10.5 ± 0.52 µM.
For the compound `C=C(C(=O)Oc1cc(C)ccc1C(C)C)C(O)c1ccc([N+](=O)[O-])cc1` (stereo not shown) [Compound 10, 2-Isopropyl-5-methylphenyl 2-(hydroxy(4-nitrophenyl)methyl)acrylate], the half-maximal inhibitory concentration (IC50) in series [1] (setting [3]) turned out to be 11.4 ± 0.57 µM.
As to `C=C(C(=O)Oc1cc(C)ccc1C(C)C)C(O)c1ccccc1[N+](=O)[O-]` (stereo not shown) [Compound 12, 2-Isopropyl-5-methylphenyl 2-(hydroxy(2-nitrophenyl)methyl)acrylate], the 50% inhibitory concentration (IC50) in series [1] (setting [3]) stood at 5.91 ± 0.3 µM.
`Cc1ccc(C(C)C)cc1O` [Compound 6, carvacrol] registered a 50% inhibitory concentration (IC50) in series [1] (Leishmania amazonensis, 72 h) of 138 ± 6.91 µM.
With `C=C(C(=O)Oc1cc(C(C)C)ccc1C)C(O)c1cccc([N+](=O)[O-])c1` (stereo not shown) [Compound 14, 5-Isopropyl-2-methylphenyl 2-(hydroxy(3-nitrophenyl)methyl)acrylate], the IC50 in series [1] (setting [3]) stood at 22.3 ± 1.12 µM.
Regarding `C=C(C(=O)Oc1cc(C(C)C)ccc1C)C(O)c1ccc([N+](=O)[O-])cc1` (stereo not shown) [Compound 13, 5-Isopropyl-2-methylphenyl 2-(hydroxy(4-nitrophenyl)methyl)acrylate], the IC50 in series [1] (setting [3]) was found to be 18.1 ± 0.9 µM.
Regarding `C=C(C(=O)Oc1cc(C)ccc1C(C)C)C(O)c1cccc([N+](=O)[O-])c1` (stereo not shown) [Compound 11, 2-Isopropyl-5-methylphenyl 2-(hydroxy(3-nitrophenyl)methyl)acrylate], in series [1] (setting [3]), the IC50 amounted to 10.6 ± 0.53 µM.
As for `C=CCc1ccc(OC(=O)C(=C)C(O)c2ccc([N+](=O)[O-])cc2)c(OC)c1` (stereo not shown) [Compound 7, 4-Allyl-2-methoxyphenyl 2-(hydroxy(4-nitrophenyl)methyl)acrylate], in the series with human red blood cells, the “SIrb (selectivity index on red blood cell) = HC50/IC50” value is given as over 45.71. The concentration for 50% haemolysis (HC50) in the series with human red blood cells (setting [2]) is over 400 µM. Further, in series [1] (setting [3]), the IC50 worked out at 8.75 ± 0.44 µM.
Consider `C=C(C(=O)Oc1cc(C(C)C)ccc1C)C(O)c1ccccc1[N+](=O)[O-]` (stereo not shown) [Compound 15, 5-Isopropyl-2-methylphenyl 2-(hydroxy(2-nitrophenyl)methyl)acrylate], for which the IC50 in series [1] (setting [3]) was found to be 13.6 ± 0.68 µM.
Regarding `C=CCc1ccc(OC(=O)C(=C)C(O)c2ccccc2[N+](=O)[O-])c(OC)c1` (stereo not shown) [Compound 9, 4-Allyl-2-methoxyphenyl 2-(hydroxy(2-nitrophenyl)methyl)acrylate], the “SIrb (selectivity index on red blood cell) = HC50/IC50” value in the series on human red blood cells was over 84.92. Besides, the HC50 with human red blood cells (setting [2]) was over 400 µM. Besides, in series [1] (setting [3]), the IC50 came to 4.71 ± 0.24 µM.
Regarding `C=CCc1ccc(O)c(OC)c1` [Compound 4, eugenol], the “SIrb (selectivity index on red blood cell) = HC50/IC50” value in the series on human red blood cells was over 5.18. For the same compound, the 50% haemolytic concentration (HC50) with human red blood cells (setting [2]) is over 400 µM. Half-maximal inhibition in series [1] (Leishmania amazonensis, 72 h) (IC50) was put at 77.2 ± 1.77 µM.

For orientation: HC50 means the concentration that lyses half of the red blood cells. Low values mean stronger haemolysis, high ones weaker haemolysis. What is called IC50 is the concentration that gives 50% inhibition.
